Measurements published in patent US9976141B2, “Compositions and methods for inhibiting gene expression of Hif2alpha” (Arrowhead Madison Inc., priority 2015, dated 2018).

Test system: human (tumor) Hif2α (EPAS1) mRNA
Assay: Hif2α knockdown in orthotopic RCC tumor bearing mice, single injection of RNAi trigger-delivery polymer conjugate, RT-qPCR (Table 7)
Format: in vivo
Details: RNAi trigger 80 μg, polymer 126 400 μg; single tail vein injection; relative to isotonic glucose
Method: A pCR3.1 expression vector expressing the reporter gene secreted alkaline phosphatase (SEAP) under the CMV promoter was prepared by directional cloning of the SEAP coding sequence PCR amplified from Clontech's pSEAP2-basic vector. Convenient restriction sites were added onto primers used to amplify the SEAP coding sequence for cloning into the pCR3.1 vector (Invitrogen). The resultant construct pCR3-SEAP was used to create a SEAP-expressing A498 ccRCC cell line. Briefly, pCR3-SEAP plasmid was transfected into A498 ccRCC cells by electroporation following manufacturer's recommendation. Stable transfectants were selected by G418 resistance. Selected A498-SEAP clones were evaluated for SEAP expression and integration stability.
Female athymic nude mice were anesthetized with ˜3% isoflourane and placed in the right lateral decubitus position. A small, 0.5-1 cm, longitudinally abdominal incision in the left flank was made. Using a moist cotton swab, the left kidney was lifted out of the peritoneum and gently stabilized. Just before injection, a 1.0 ml syringe was filled with the cell/Matrigel mixture and a 27 gauge needle catheter was attached to the syringe tip. The filled syringe was then attached to a syringe pump (Harvard Apparatus, model PHD2000) and primed to remove air. The tip of a 27-gauge needle catheter attached to a syringe was inserted just below the renal capsule near the caudal pole and the tip of the needle was then carefully advanced cranially along the capsule 3-4 mm. A 10 μl aliquot of 2:1 (vol:vol) cell/matrigel mixture containing about 300,000 cells was slowly injected into the kidney parenchyma using a syringe pump. The needle was left in the kidney for 15-20 seconds to ensure the injection was complete. The needle was then removed from the kidney and a cotton swab was placed over the injection site for 30 seconds to prevent leakage of the cells or bleeding. The kidney was then gently placed back into the abdomen and the abdominal wall was closed. Serum was collected every 7-14 days after implantation to monitor tumor growth using a commercial SEAP assay kit. For most studies, tumor mice were used 5-6 weeks after implantation, when tumor measurements were typically around 4-8 mm.
RGD targeted HiF2α-RNAi trigger delivery conjugates. Delivery polymers were modified using RGD-PEG-HyNic, RGD-PEG-ACit-PNP, or RDG-PEG-FCitFP-TFP and PEG-dipeptide modifying agents. The indicated amount of polymer 126 or 100A polymer was modified with 8×PEG12-ACit-PABC-PNP/0.5× aldehyde-PEG24-FCit-PABC-PNP (with RGD mimic #1-PEG-HyNic using protocol #1) and the indicated amount of the indicated Hif2α RNAi trigger. Polymer 064 was modified according to protocol 7. Kidney RCC tumor-bearing mice were generated as described and treated with a single tail vein injection of isotonic glucose (G1) or the indicated Hif2α RNAi trigger-delivery polymer conjugate. Mice were euthanized at the indicated time after injection and total RNA was prepared from kidney tumor using Trizol reagent following manufacturer's recommendation. Relative HiF2α mRNA levels were determined by RT-qPCR as described below and compared to mice treated with delivery buffer (isotonic glucose) only.
In preparation for quantitative PCR, total RNA was isolated from tissue samples homogenized in TriReagent (Molecular Research Center, Cincinnati, Ohio) following the manufacturer's protocol. Approximately 500 ng RNA was reverse-transcribed using the High Capacity cDNA Reverse Transcription Kit (Life Technologies). For human (tumor) Hif2α (EPAS1) expression, pre-manufactured TaqMan gene expression assays for human Hif2α (Catalog #4331182) and CycA (PPIA) Catalog #: 4326316E) were used in biplex reactions in triplicate using TaqMan Gene Expression Master Mix (Life Technologies) or VeriQuest Probe Master Mix (Affymetrix). […]

Substance	Relative Expression day 4 (Hif2α mRNA in kidney tumor)
AD01020 (antisense TGUAAAACAAUUGUGUACUTT; sense AGUACACAAUUGUUUUACAT; Hif2alpha RNAi agent antisense strand; modified_base 2,4,8,10,12,14,16,18 /mod_base = “2′-deoxy-2′-fluoro corresponding nucleoside”; modified_base 3,5,7,9,11,13,15,17,19 /mod_base = “2′-O-methyl corresponding nucleoside”; modified_base 6 /mod_base = “2′-3′ seco corresponding nucleotide”; modified_base 21 /mod_base = “5′-phosphorothioate corresponding nucleotide”; Hif2alpha RNAi agent sense strand; modified_base 1,3,5,7,9,11,13,15,17,19 /mod_base = “2′-deoxy-2′-fluoro corresponding nucleoside”; modified_base 2,4,6,8,10,12,14,16,18 /mod_base = “2′-O-methyl corresponding nucleoside”; modified_b)	0.94
AD01021 (antisense TGUAAAACAAUUGUGUACUTT; sense AGUACACAAUUGUUUUACAT; Hif2alpha RNAi agent antisense strand; modified_base 2,4,6,8,10,12,14,16,18 /mod_base = “2′-deoxy-2′-fluoro corresponding nucleoside”; modified_base 3,5,9,11,13,15,17,19 /mod_base = “2′-O-methyl corresponding nucleoside”; modified_base 7 /mod_base = “2′-3′ seco corresponding nucleotide”; modified_base 21 /mod_base = “5′-phosphorothioate corresponding nucleotide”; Hif2alpha RNAi agent sense strand; modified_base 1,3,5,7,9,11,13,15,17,19 /mod_base = “2′-deoxy-2′-fluoro corresponding nucleoside”; modified_base 2,4,6,8,10,12,14,16,18 /mod_base = “2′-O-methyl corresponding nucleoside”; modified_b)	0.90
AD01022 (antisense TGUAAAACAAUUGUGUACUTT; sense AGUACACAAUUGUUUUACAT; Hif2alpha RNAi agent antisense strand; modified_base 2,4,6,8,10,12,14,16,18 /mod_base = “2′-deoxy-2′-fluoro corresponding nucleoside”; modified_base 3,5,7,9,11,13,15,17,19 /mod_base = “2′-O-methyl corresponding nucleoside”; modified_base 21 /mod_base = “5′-phosphorothioate corresponding nucleotide”; Hif2alpha RNAi agent sense strand; modified_base 1,3,5,7,9,11,13,15,17,19 /mod_base = “2′-deoxy-2′-fluoro corresponding nucleoside”; modified_base 2,4,6,8,10,12,14,16,18 /mod_base = “2′-O-methyl corresponding nucleoside”; modified_base 20 /mod_base = “3′-3′-linked nucleotide”; modified_base 1 /mo)	0.53
AD01023 (antisense TCUAGCAACAAAACCUUAATT; sense UUAAGGUUUUGUUGCUAGAT; Hif2alpha RNAi agent antisense strand; modified_base 2,4,8,10,12,14,16,18 /mod_base = “2′-deoxy-2′-fluoro corresponding nucleoside”; modified_base 3,5,7,9,11,13,15,17,19 /mod_base = “2′-O-methyl corresponding nucleoside”; modified_base 6 /mod_base = “2′-3′ seco corresponding nucleotide”; modified_base 21 /mod_base = “5′-phosphorothioate corresponding nucleotide”; Hif2alpha RNAi agent sense strand; modified_base 1,3,5,7,9,11,13,15,17,19 /mod_base = “2′-deoxy-2′-fluoro corresponding nucleoside”; modified_base 2,4,6,8,10,12,14,16,18 /mod_base = “2′-O-methyl corresponding nucleoside”; modified_b)	0.93
AD01024 (antisense TCUAGCAACAAAACCUUAATT; sense UUAAGGUUUUGUUGCUAGAT; Hif2alpha RNAi agent antisense strand; modified_base 2,4,6,8,10,12,14,16,18 /mod_base = “2′-deoxy-2′-fluoro corresponding nucleoside”; modified_base 3,5,9,11,13,15,17,19 /mod_base = “2′-O-methyl corresponding nucleoside”; modified_base 7 /mod_base = “2′-3′ seco corresponding nucleotide”; modified_base 21 /mod_base = “5′-phosphorothioate corresponding nucleotide”; Hif2alpha RNAi agent sense strand; modified_base 1,3,5,7,9,11,13,15,17,19 /mod_base = “2′-deoxy-2′-fluoro corresponding nucleoside”; modified_base 2,4,6,8,10,12,14,16,18 /mod_base = “2′-O-methyl corresponding nucleoside”; modified_b)	0.51
AD01025 (antisense TCUAGCAACAAAACCUUAATT; sense UUAAGGUUUUGUUGCUAGAT; Hif2alpha RNAi agent antisense strand; modified_base 2,4,6,8,10,12,14,16,18 /mod_base = “2′-deoxy-2′-fluoro corresponding nucleoside”; modified_base 3,5,7,9,11,13,15,17,19 /mod_base = “2′-O-methyl corresponding nucleoside”; modified_base 21 /mod_base = “5′-phosphorothioate corresponding nucleotide”; Hif2alpha RNAi agent sense strand; modified_base 1,3,5,7,9,11,13,15,17,19 /mod_base = “2′-deoxy-2′-fluoro corresponding nucleoside”; modified_base 2,4,6,8,10,12,14,16,18 /mod_base = “2′-O-methyl corresponding nucleoside”; modified_base 20 /mod_base = “3′-3′-linked nucleotide”; modified_base 1 /mo)	0.34
AD01026 (antisense TAAAUCGUUACGUUGACAGTT; sense CUGUCAACGUAACGAUUUAT; Hif2alpha RNAi agent antisense strand; modified_base 2,4,8,10,12,14,16,18 /mod_base = “2′-deoxy-2′-fluoro corresponding nucleoside”; modified_base 3,5,7,9,11,13,15,17,19 /mod_base = “2′-O-methyl corresponding nucleoside”; modified_base 6 /mod_base = “2′-3′ seco corresponding nucleotide”; modified_base 21 /mod_base = “5′-phosphorothioate corresponding nucleotide”; Hif2alpha RNAi agent sense strand; modified_base 1,3,5,7,9,11,13,15,17,19 /mod_base = “2′-deoxy-2′-fluoro corresponding nucleoside”; modified_base 2,4,6,8,10,12,14,16,18 /mod_base = “2′-O-methyl corresponding nucleoside”; modified_b)	0.97
